Among the data in patent publication US8877707B2, “Inhibitors of HCV NS5A” (Presidio Pharmaceuticals, Inc., priority 2010, dated 2014) are EC50 values, retold here.

The subject of this assay is HCV genotype 1b replicon in Huh 7 cells. Description: HCV replicon assay (1b_Huh-Luc/Neo-ET cell line, luciferase readout). It is filed as cell-based. The following applies: Hepatitis C virus, genotype 1b replicon, Huh 7 cells, 72 h, luciferase, read-out: Inhibition of HCV genotype 1b. The method in brief:
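Huh 7 cells carrying a bicistronic genotype 1b luciferase replicon were treated with compound in triplicate the day after plating and incubated 72 h. Luciferase activity expressed as % of untreated control; EC50 from a four-parameter logistic fit, repeated several times.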
On the technique in general: A replicon is a self-replicating genome or part of one, used to study replication in cells.

Where two headings read alike, the source gives them in different places. Where only a bound is given, the exact number is not on record here.

As to `COC(=O)N[C@H](C(=O)N1CCC[C@H]1c1nc2ccc3cc(-c4ccc5cc(-c6cnc([C@@H]7CCCN7C(=O)[C@@H](NC(=O)OC)C7CCOCC7)[nH]6)ccc5n4)ccc3c2[nH]1)C(C)C` [compound 297], the EC50 (Table 1) was less than 1 nM.

Consider `COC(=O)N[C@H](C(=O)N1CCC[C@H]1c1nc2ccc3cc(-c4ccc5cc(-c6cnc([C@@H]7CCCN7C(=O)[C@H](NC(=O)OC)c7ccccc7)[nH]6)ccc5n4)ccc3c2[nH]1)C(C)C` [compound 298], for which the EC50 (Table 1) was less than 1 nM.

As for `COC(=O)N[C@H](C(=O)N1CCC[C@H]1c1nc2ccc3cc(-c4ccc5cc(-c6cnc([C@@H]7CCCN7C(=O)[C@H](NC(=O)OC7CCOCC7)c7ccccc7)[nH]6)ccc5n4)ccc3c2[nH]1)C(C)C` [compound 299], the EC50 (Table 1) was less than 1 nM.

Turning to `COC(=O)N[C@H](C(=O)N[C@@H](C)c1ncc(-c2ccc3cc(-c4ccc(-c5cnc([C@@H]6CCCN6C(=O)[C@@H](NC(=O)OC)C(C)C)[nH]5)cc4)ccc3c2)[nH]1)C(C)C` [compound 304], the EC50 (Table 2) was less than 1 nM.

`COC(=O)N[C@H](C(=O)N1CCC[C@H]1c1ncc(-c2ccc(-c3ccc4cc(-c5cnc([C@@H]6C[C@@H](O)CN6C(=O)[C@@H](NC(=O)OC)C(C)C)[nH]5)ccc4c3)cc2)[nH]1)C(C)C` [compound 305]: the EC50 (Table 2) is less than 1 nM.

Regarding `COC(=O)N[C@H](C(=O)N1CC[C@H](O)[C@H]1c1ncc(-c2ccc3cc(-c4ccc(-c5cnc([C@@H]6CCCN6C(=O)[C@@H](NC(=O)OC)C(C)C)[nH]5)cc4)ccc3c2)[nH]1)C(C)C` [compound 306], the EC50 (Table 2) is less than 1 nM.

Turning to `COC(=O)N[C@H](C(=O)N1CCCC[C@H]1c1ncc(-c2ccc3cc(-c4ccc(-c5cnc([C@@H]6CCCN6C(=O)[C@@H](NC(=O)OC)C(C)C)[nH]5)cc4)ccc3c2)[nH]1)C(C)C` [compound 307], the EC50 (Table 2) was less than 1 nM.

For the compound `COC(=O)N[C@H](C(=O)N1CCC[C@H]1c1ncc(-c2ccc(-c3ccc4cc(-c5cnc([C@@H]6CSCCN6C(=O)[C@@H](NC(=O)OC)C(C)C)[nH]5)ccc4c3)cc2)[nH]1)C(C)C` [compound 308], the EC50 (Table 2) is less than 1 nM.

With `COC(=O)N[C@H](C(=O)N1CCC[C@H]1c1ncc(-c2ccc(-c3ccc4cc(-c5cnc([C@@H]6CCCN6C(=O)[C@@H](NC(=O)OC)C(C)C)[nH]5)ccc4c3)c(C#N)c2)[nH]1)C(C)C` [compound 309], the EC50 (Table 2) is less than 1 nM.

`COC(=O)N[C@H](C(=O)N1CCC[C@H]1c1ncc(-c2ccc(-c3ccc4cc(-c5cnc([C@@H]6CCCN6C(=O)[C@@H](NC(=O)OC)C(C)C)[nH]5)ccc4c3)c(C(F)(F)F)c2)[nH]1)C(C)C` [compound 310]: the EC50 (Table 2) is less than 1 nM.

As to `COC(=O)N[C@H](C(=O)N1CCC[C@H]1c1ncc(-c2ccc3cc(-c4ccc(-c5cnc([C@@H]6CCCN6C(=O)[C@@H](NC(=O)OC)C(C)C)[nH]5)nn4)ccc3c2)[nH]1)C(C)C` [compound 312], where the note is “Table 2”, the EC50 is less than 1 nM.

With `COC(=O)N[C@H](C(=O)N1CCC[C@H]1c1ncc(-c2ccc3cc(-c4ccc(-c5cnc([C@@H]6CCCN6C(=O)[C@@H](NC(=O)OC)C6CCOCC6)[nH]5)nn4)ccc3c2)[nH]1)C1CCOCC1` [compound 314], the EC50 (Table 2) was less than 1 nM.

Take `COC(=O)N[C@H](C(=O)N1CCC[C@H]1c1ncc(-c2ccc3cc(-c4ccc(-c5cnc([C@@H]6CCCN6C(=O)[C@H](NC(=O)OC)c6ccccc6)[nH]5)nn4)ccc3c2)[nH]1)C1CCOCC1` [compound 315]: the EC50 (Table 2) is less than 1 nM.

As for `COC[C@H](NC(=O)OC)C(=O)N1CCC[C@H]1c1ncc(-c2ccc3cc(-c4ccc(-c5cnc([C@@H]6CCCN6C(=O)[C@H](NC(=O)OC)c6ccccc6)[nH]5)cc4)ccc3c2)[nH]1` [compound 316], the EC50 (Table 2) is less than 1 nM.

Consider `COC(=O)N[C@@H](C)C(=O)N1CCC[C@H]1c1ncc(-c2ccc3cc(-c4ccc(-c5cnc([C@@H]6CCCN6C(=O)[C@H](NC(=O)OC)c6ccccc6)[nH]5)cc4)ccc3c2)[nH]1` [compound 319], for which the EC50 (Table 2) was less than 1 nM.

As for `COC(=O)NC(C(=O)N1CCC[C@H]1c1ncc(-c2ccc3cc(-c4ccc(-c5cnc([C@@H]6CCCN6C(=O)[C@H](NC(=O)OC)c6ccccc6)[nH]5)cc4)ccc3c2)[nH]1)[C@@H](C)O` (stereo partly drawn) [compound 320], the EC50 (Table 2) was less than 1 nM.

For the compound `COC(=O)N[C@@H](C)C(=O)N1CCC[C@H]1c1ncc(-c2ccc3cc(-c4ccc(-c5cnc([C@@H]6COCCN6C(=O)[C@H](NC(=O)OC)c6ccccc6)[nH]5)cc4)ccc3c2)[nH]1` [compound 322], the EC50 (Table 2) is less than 1 nM.

On to `COC(=O)N[C@H](C(=O)N1CCC[C@H]1c1ncc(-c2ccc3cc(-c4ccc(-c5cnc([C@@H]6COCCN6C(=O)[C@H](NC(=O)OC)c6ccccc6)[nH]5)cc4)ccc3c2)[nH]1)[C@@H](C)OC` [compound 323], for which the EC50 (Table 2) is less than 1 nM.

For `COC(=O)N[C@H](C(=O)N1CCC[C@H]1c1ncc(-c2ccc3cc(-c4ccc(-c5cnc([C@@H]6COCCN6C(=O)[C@H](NC(=O)OC)c6ccccc6)[nH]5)cc4)ccc3c2)[nH]1)[C@@H](C)O` [compound 324], the EC50 (Table 2) was less than 1 nM.

Turning to `COC(=O)N[C@@H](C)C(=O)N1CCOC[C@H]1c1ncc(-c2ccc3cc(-c4ccc(-c5cnc([C@@H]6CCCN6C(=O)[C@H](NC(=O)OC)c6ccccc6)[nH]5)cc4)ccc3c2)[nH]1` [compound 326], under “Table 2”, the EC50 is less than 1 nM.

Take `COC(=O)N[C@H](C(=O)N1CCOC[C@H]1c1ncc(-c2ccc3cc(-c4ccc(-c5cnc([C@@H]6CCCN6C(=O)[C@H](NC(=O)OC)c6ccccc6)[nH]5)cc4)ccc3c2)[nH]1)[C@@H](C)OC` [compound 327]: where the note is “Table 2”, the EC50 was less than 1 nM.

As to `COC(=O)N[C@H](C(=O)N[C@@H](C)c1ncc(-c2ccc3cc(-c4ccc(-c5cnc([C@@H]6CCCN6C(=O)[C@H](NC(=O)OC)c6ccccc6)[nH]5)cc4)ccc3c2)[nH]1)[C@@H](C)OC` [compound 329], for the setting “Table 2”, the EC50 was less than 1 nM.

Turning to `COC(=O)N[C@H](C(=O)N1CCC[C@H]1c1ncc(-c2ccc3cc(-c4ccc(-c5cnc([C@@H]6CCCN6C(=O)[C@H](NC(=O)OC)c6ccccc6)[nH]5)cn4)ccc3c2)[nH]1)C1CCOCC1` [compound 337], under “Table 2”, the EC50 is less than 1 nM.

Regarding `COC(=O)N[C@@H](C)C(=O)N1CCC[C@H]1c1ncc(-c2ccc3cc(-c4ccc(-c5cnc([C@@H]6CCCN6C(=O)[C@H](NC(=O)OC)c6ccccc6)[nH]5)cn4)ccc3c2)[nH]1` [compound 338], the EC50 (Table 2) was less than 1 nM.

For `CC[C@H](C)C(NC(=O)OC)C(=O)N1CCC[C@H]1c1nc2ccc(-c3ccc4cc(-c5cnc([C@@H]6CCCN6C(=O)[C@@H](NC(=O)OC)[C@@H](C)CC)[nH]5)ccc4c3)cc2[nH]1` (stereo partly drawn) [compound 346], the EC50 (Table 2) is less than 1 nM.

Turning to `COC(=O)N[C@H](C(=O)N1CCC[C@H]1c1ncc(-c2ccc3cc(-c4ccc5nc([C@@H]6CCCN6C(=O)[C@@H](NC(=O)OC)C6CCCCC6)[nH]c5c4)ccc3c2)[nH]1)C1CCCCC1` [compound 348], the EC50 (Table 2) was less than 1 nM.

Consider `COC(=O)N[C@H](C(=O)N1CCC[C@H]1c1ncc(-c2ccc3cc(-c4ccc5nc([C@@H]6COCCN6C(=O)[C@@H](NC(=O)OC)C6CCCC6)[nH]c5c4)ccc3c2)[nH]1)C1CCCC1` [compound 350], for which the EC50 (Table 2) is less than 1 nM.

Consider `CCC(CC)[C@H](NC(=O)OC)C(=O)N1CCC[C@H]1c1ncc(-c2ccc3cc(-c4ccc5nc([C@@H]6COCCN6C(=O)[C@@H](NC(=O)OC)C(CC)CC)[nH]c5c4)ccc3c2)[nH]1` [compound 351], for which the EC50 (Table 2) is less than 1 nM.

With `CC[C@@H](C)[C@H](NC(=O)OC)C(=O)N1CCC[C@H]1c1ncc(-c2ccc3cc(-c4ccc5nc([C@@H]6COCCN6C(=O)[C@@H](NC(=O)OC)[C@H](C)CC)[nH]c5c4)ccc3c2)[nH]1` [compound 352], the EC50 (Table 2) is less than 1 nM.

As to `CC[C@H](C)[C@H](NC(=O)OC)C(=O)N1CCC[C@H]1c1ncc(-c2ccc3cc(-c4ccc5nc([C@@H]6COCCN6C(=O)[C@@H](NC(=O)OC)[C@@H](C)CC)[nH]c5c4)ccc3c2)[nH]1` [compound 353], the EC50 (Table 2) was less than 1 nM.

Consider `COC(=O)N[C@H](C(=O)N1CCC[C@H]1c1ncc(-c2ccc3cc(-c4ccc5nc([C@@H]6COCCN6C(=O)[C@@H](NC(=O)OC)[C@@H](C)OC)[nH]c5c4)ccc3c2)[nH]1)[C@@H](C)OC` [compound 354], for which the EC50 (Table 2) was less than 1 nM.

With `COC(=O)N[C@H](C(=O)N1CCC[C@H]1c1ncc(-c2ccc3cc(-c4ccc5nc([C@@H]6COCCN6C(=O)[C@@H](NC(=O)OC)[C@@H](C)O)[nH]c5c4)ccc3c2)[nH]1)[C@@H](C)O` [compound 355], the EC50 (Table 2) was less than 1 nM.

Take `COC(=O)N[C@H](C(=O)N1CCC[C@H]1c1ncc(-c2ccc3cc(-c4ccc5nc([C@@H]6COCCN6C(=O)[C@@H](NC(=O)OC)C6CC6)[nH]c5c4)ccc3c2)[nH]1)C1CC1` [compound 356]: the EC50 (Table 2) was less than 1 nM.

On to `CC[C@H](NC(=O)OC)C(=O)N1CCC[C@H]1c1ncc(-c2ccc3cc(-c4ccc5nc([C@@H]6COCCN6C(=O)[C@H](CC)NC(=O)OC)[nH]c5c4)ccc3c2)[nH]1` [compound 357], for which the EC50 (Table 2) was less than 1 nM.

`COC(=O)N[C@@H](C)C(=O)N1CCC[C@H]1c1ncc(-c2ccc3cc(-c4ccc5nc([C@@H]6COCCN6C(=O)[C@H](C)NC(=O)OC)[nH]c5c4)ccc3c2)[nH]1` [compound 359]: the EC50 (Table 2) was less than 1 nM.

`COC(=O)N[C@H](C(=O)N1CCC[C@H]1c1ncc(-c2ccc3cc(-c4ccc5nc([C@@H]6COCCN6C(=O)[C@@H](NC(=O)OC)C6CCCCC6)[nH]c5c4)ccc3c2)[nH]1)C1CCCCC1` [compound 361]: for the setting “Table 2”, the EC50 was less than 1 nM.

`COC(=O)N[C@H](C(=O)N1CCC[C@H]1c1ncc(-c2ccc3cc(-c4ccc5nc([C@@H]6CCCN6C(=O)[C@@H](NC(=O)OC)C6CCCC6)[nH]c5c4)ncc3c2)[nH]1)C1CCCC1` [compound 372]: the EC50 (Table 2) was less than 1 nM.

For `CC[C@H](C)[C@H](NC(=O)OC)C(=O)N1CCC[C@H]1c1ncc(-c2ccc3cc(-c4ccc5nc([C@@H]6CCCN6C(=O)[C@@H](NC(=O)OC)[C@@H](C)CC)[nH]c5c4)ncc3c2)[nH]1` [compound 374], the EC50 (Table 2) is less than 1 nM.

`CC[C@@H](C)[C@H](NC(=O)OC)C(=O)N1CCC[C@H]1c1ncc(-c2ccc3cc(-c4ccc5nc([C@@H]6CCCN6C(=O)[C@@H](NC(=O)OC)[C@H](C)CC)[nH]c5c4)ncc3c2)[nH]1` [compound 375]: the EC50 (Table 2) was less than 1 nM.
